According to patent US20240415845A1, “Compositions of Iboga Alkaloids and Methods of Treatment” (priority 2022, published 2024):
Values joined by “and” are separate entries in the source; they are usually repeats but may differ in a detail not shown here. Equal entries are not always repeated.

Tests used:
[1] = tested on: special operations veterans with combat and/or blast exposure; test: MRI-based predicted brain age (machine learning model); type: in vivo, human; conditions: for brain age estimate: baseline 40.89 years; for Brain age, Cohen's d / Brain age, Mean Difference: N 24
Description: In another aspect, a method for slowing or reversing brain aging in a subject is provided. In an embodiment, the subject is a person a healthy individual or is a person with TBI or with TBI and PTSD or a person at risk of one or both of TBI and PTSD. The method comprises treating the subject with ibogaine, as described herein. Neuroimaging data can be used to predict chronological age in healthy individuals, using machine learning. Neuroimaging-derived age predictions have been explored in the context of different brain diseases (Cole, et al., NeuroImage, 163:115-124 (2017): Cole, et al., Trends in Neurosciences, 40(12):681 (2017))). By training models on healthy individuals, brain-based predictions of age can be made in independent clinical samples. If ‘brain-predicted age’ is greater than an individual's chronological age, this is thought to reflect some aberrant accumulation of age-related changes to the brain (Id.). […] A predictive model of normal ageing defined using machine learning in healthy individuals, based on magnetic resonance imaging-derived estimates of gray matter and white matter (Id.) was applied to the MRI images from the subjects enrolled in the study of Example 1. […] There was a significant reversal of brain age from baseline to one month after treatment. The mean decrease in brain age was 1.3 years (corrected p=0.03).
At baseline, the brain age estimate for the 24 subjects was 40.89 years. […] The average decrease in brain age from baseline one month after treatment was 1.4 years.

[2] = tested on: special operations veterans with combat and/or blast exposure; test: Moral Injury Symptom Scale (MISS); type: in vivo, human
Description: A Moral Injury Symptom Scale (MISS) was also used to assess the subjects before and one month after treatment. Moral injury is when one acts in a manner or witnesses behaviors that go against an individual's values and moral beliefs. This may include betrayal by leadership or peers with adverse outcomes. Symptoms include guilt, remorse, shame, disgust, anger, inability to forgive oneself, engaging in self-sabotaging behaviors, such as feeling undeserving, affecting work and relationships, and questioning spirituality. The MISS is a multidimensional measure to assess the severity of moral injury symptoms. Possible score range is 45-450, with higher scores indicating more severe moral injury (Koenig et al., J. Relig Health, 57:249-265 (2018)).

[3] = tested on: special operations veterans with combat and/or blast exposure; conditions: in vivo
[4] = tested on: male veterans with a history of TBI; test: Pseudo-continuous arterial spin labeling (pcASL) MRI of cerebral blood flow; type: in vivo, human; conditions: baseline, first post-treatment scan and one month post-treatment; paired t-test; 18 subjects
Description: Arterial spin labeling (ASL) MR was used to measure cerebral blood flow in some of the subjects of the subjects enrolled in the study of Example 1. As described in Example 3, pseudo-continuous ASL (pcASL) was performed on the subject at baseline, about 1 week after treatment, and one-month after treatment. […] A first metric of interest was change in net quantity (mL/100 g tissue/min) of blood entering different regions of the brain. Images of the left posterior orbital gyrus, left anterior insula, left and right cerebral white matter at baseline and 1-week post treatment (images not shown) were analyzed and compared. […] A paired t-test across 3 time points—baseline (pre-treatment), 1 week post-treatment, and 1 month post-treatment—was employed.
Arterial spin labeling (ASL) MRW was used to measure cerebral blood flow.
A first metric of interest was change in net quantity (mL/100 g tissue/min) of blood entering different regions of the brain. Images of the left posterior orbital gyrus, left anterior insula, left and right cerebral white matter at baseline and 1-2 days post treatment (images not shown) were analyzed and compared.
A paired t-test across 3 time points-baseline (pre-treatment), 1-2 days post-treatment, and one month post-treatment-was employed.

[5] = contrast 1 wk post − 1 mo. post
[6] = contrast immediate post (~1 wk) − baseline
[7] = one month after treatment, 24 subjects

**Q.** Which “Brain age, contrast Estimate” value ([1]; Baseline & 1 wk. vs 1 mo., weights .5-.5-1) does the source give for `CCC1CC2CC3c4[nH]c5ccc(OC)cc5c4CCN(C2)C13` (centres unmarked) [ibogaine, Ibogaine] here?
**A.** 1.220 years

**Q.** And the “Brain age, contrast Estimate” value ([1]; Baseline vs. 1 wk and 1 mo., weights 1-.5-.5)?
**A.** 0.892 years

**Q.** And the brain age estimate ([1]; about one week after treatment, 24 subjects)?
**A.** 40.52 years

**Q.** And the “mean decrease in predicted brain age” value ([1]; baseline to one month after treatment, corrected p=0.03 (FIG. 19A))?
**A.** 1.3 years

**Q.** And the “Brain age, Cohen's d” value ([1]; contrast 1-mo. post − baseline)?
**A.** −0.6137

**Q.** What about the “Brain age, Mean Difference” value ([1]; contrast 1-mo. post − baseline) of the same molecule?
**A.** −1.408 Years

**Q.** And the “Brain age, Cohen's d” value [1, 5]?
**A.** −0.4729

**Q.** What about the “Brain age, Mean Difference” value [1, 5] of the same molecule?
**A.** −1.031 Years

**Q.** What about the “Brain age, Cohen's d” value [1, 6] of the same molecule?
**A.** −0.2114

**Q.** What about the “Brain age, Mean Difference” value [1, 6] of the same molecule?
**A.** −0.3764 Years

**Q.** What about the “average decrease in brain age from baseline” value [1, 7] of the same molecule?
**A.** 1.4 years

**Q.** What about the brain age estimate [1, 7] of the same molecule?
**A.** 39.48 years

**Q.** And the “estimated brain age compared to accelerated intermittent theta burst stimulation (aiTBS)” value ([1]; one-month post treatment (FIG. 19D))?
**A.** reducing in estimated brain age

**Q.** What about the “subjects showing a reduction in moral injury score” value ([2]; FIG. 6B) of the same molecule?
**A.** 88%

**Q.** And the MISS effect size ([2]; one month after treatment vs baseline)?
**A.** 1.14

**Q.** And the “average moral injury symptoms score (MISS)” value ([2]; one month after treatment, baseline about 220, score range 45-450)?
**A.** about 140

**Q.** And the “Cognitive Flexibility Composite (average of D-KEFS TMT Condition 4, Color/Word Interference Condition 4, Verbal Fluency Category Switching) score” value [3]?
**A.** 56.6 ± 5.7 T score and 59.3 ± 5.0 T score

**Q.** And the “Cognitive Flexibility Composite, effect size D” value [3]?
**A.** 0.74 and 0.43

**Q.** What about the “Cognitive Inhibition (D-KEFS Color/Word Interference, Condition 3) score” value [3] of the same molecule?
**A.** 59.9 ± 6.4 T score and 59.9 ± 7.5 T score

**Q.** What about the “Cognitive Inhibition (D-KEFS Color/Word Interference, Condition 3), effect size D” value [3] of the same molecule?
**A.** 1.22 and 0.62

**Q.** What about the “Detection (CPT-3 Detection) score” value [3] of the same molecule?
**A.** 41.2 ± 8.2 T score and 39.5 ± 7.5 T score

**Q.** What about the “Detection (CPT-3 Detection), effect size D” value [3] of the same molecule?
**A.** 0.86 and 1.05

**Q.** What about the “Phonemic Fluency (D-KEFS Verbal Fluency) score” value [3] of the same molecule?
**A.** 60.8 ± 10.3 T score and 64.0 ± 10.1 T score

**Q.** What about the “Problem Solving (D-KEFS TT, Total Achievement Score) score” value [3] of the same molecule?
**A.** 59.1 ± 7.1 T score and 59.5 ± 7.9 T score

**Q.** What about the “Problem Solving (D-KEFS TT, Total Achievement Score), effect size D” value [3] of the same molecule?
**A.** 0.44 and 0.49

**Q.** What about the “Reaction Time (CPT-3 Reaction Time) score” value [3] of the same molecule?
**A.** 44.1 ± 6.8 T score and 46.4 ± 8.1 T score

**Q.** What about the “Reaction Time (CPT-3 Reaction Time), effect size D” value [3] of the same molecule?
**A.** 0.52 and 0.29

**Q.** And the “Semantic Fluency (D-KEFS Verbal Fluency) score” value [3]?
**A.** 60.2 ± 12.2 T score and 63.6 ± 7.8 T score

**Q.** And the “Sustained Attention (CPT-3 Hit Reaction Time Block Change) score” value [3]?
**A.** 50.8 ± 7.9 T score and 51.2 ± 7.7 T score

**Q.** What about the “Verbal Memory (HVLT-R) score” value [3] of the same molecule?
**A.** 49.0 ± 9.2 T score and 53.1 ± 8.8 T score

**Q.** And the “Visuospatial Memory (BVMT-R) score” value [3]?
**A.** 58.8 ± 7.1 T score and 58.3 ± 6.6 T score

**Q.** What about the “Visuospatial Memory (BVMT-R), effect size D” value [3] of the same molecule?
**A.** 0.32 and 0.50

**Q.** And the “adverse effect on processing speed, individual D-KEFS results” value [3]?
**A.** no indication of an adverse effect

**Q.** What about the “declines across any neuropsychological performance domain” value [3] of the same molecule?
**A.** No declines

**Q.** What about the “executive functioning (inhibition, cognitive flexibility, problem-solving, phonemic fluency, working memory), effect sizes D” value [3] of the same molecule?
**A.** 0.31-1.22

**Q.** And the “performance changes in language (semantic fluency)” value [3]?
**A.** No significant performance changes

**Q.** What about the “processing speed, effect sizes D” value [3] of the same molecule?
**A.** 0.97-1.34

**Q.** And the “slowing of reaction time, effect sizes D” value [3]?
**A.** 0.29-0.52

**Q.** And the “sustained attention accuracy (detection), effect sizes D” value [3]?
**A.** 0.86-1.05

**Q.** And the “Processing Speed (PSI, WAIS-IV) score” value ([3]; iv)?
**A.** 59.2 ± 9.7 T score and 61.6 ± 10.7 T score

**Q.** What about the “Processing Speed (PSI, WAIS-IV), effect size D” value ([3]; iv) of the same molecule?
**A.** 0.97 and 1.34

**Q.** What about the “Working Memory (WMI, WAIS-IV) score” value ([3]; iv) of the same molecule?
**A.** 57.0 ± 9.5 T score and 57.6 ± 9.2 T score

**Q.** What about the “Working Memory (WMI, WAIS-IV), effect size D” value ([3]; iv) of the same molecule?
**A.** 0.37 and 0.31

**Q.** And the “changes in absolute cerebral blood flow” value [4]?
**A.** No significant changes
